Values quoted from earlier work, collected in patent US20070066591A1, “Compounds, compositions, and methods” (priority 2003, published 2007).

System: A549 cells
Conditions: data provided by National Cancer Institute, Developmental Therapeutic Program

Row | SMILES | GI50 [nM]
1 | O=c1[nH]cc(F)c(=O)[nH]1 [5-fluorouracil] | 1000
2 | COc1cccc2c1C(=O)c1c(O)c3c(c(O)c1C2=O)C[C@@](O)(C(=O)CO)C[C@@H]3O[C@H]1C[C@H](N)[C@H](O)[C@H](C)O1 [doxorubicin] | 63
3 | NC(=O)NO [hydroxyurea] | 500000
4 | CC(=O)O[C@H]1C(=O)[C@@]2(C)[C@H]([C@H](OC(=O)c3ccccc3)[C@]3(O)C[C@H](OC(=O)[C@H](O)[C@@H](NC(=O)c4ccccc4)c4ccccc4)C(C)=C1C3(C)C)[C@]1(OC(C)=O)CO[C@@H]1C[C@@H]2O [paclitaxel] | 4
